Measured values taken from patent US4497806A, “Triorganotin compounds, antifungal and antibacterial compositions containing same, and method of using same” (priority 1983, dated 1985).

How the values were obtained:
Escherichia coli = experiment: Antibacterial activity, agar growth inhibition; assay type: cell-based; conditions: for growth inhibition: Gram-negative, 24 hours at 37° C.
Procedure: (§1) The agar was also needed with a 1:100 dilution of an 18-hour old culture of the desired bacterial species in sterile distilled water. The plates were incubated for 24 hours at 37° C. with each bacterial strain. Observations of bacterial growth inhibition were made following the appropriate incubation period.
(§2) A solvent control was included in all evaluations, as were growth controls for all bacteria species.
(§3) These compounds were tested for antibacterial activity in the same manner as the triorganotin 5-nitro-2-furoates of the present invention.
(§4) All of the bacteria tested were obtained from the culture collection of the Department of Biological Sciences, St. John's University.

[1] = tested on: Rhizopus stolonifer (ATCC 10404); experiment: Antifungal activity, agar plate growth inhibition; assay type: cell-based; conditions: 14 days
Procedure: (§5) Dilutions of the sterile solutions were prepared and added to liquified potato dextrose agar (Difco) to yield final concentrations of 100, 10 and 1 μg/ml. The agar, containing the appropriate organotin compound, was poured into sterile petri dishes and allowed to solidify over night. The agar surface was inoculated centrally with a 2 mm^2 portion of the growth from a ten-day-old culture of each fungus of the group consisting of Aspergillus niger, Chaetomium globosum, Cladosporium carpophilum, Fusarium moniliforme, Myrotheium verrucaria, Penicillium notatum, Rhizopus stolonifer, Trichoderma viride and Trichophyton mentagrophytes, or from a two-day-old culture of Saccharomyces cerevisiae. Inoculated plates were incubated for 14 days and observations of growth inhibition were made by measuring the diameters of the colonies present on the agar surface.
(§6) A solvent was included in all evaluations, as were growth controls for all fungal species.
(§7) The following compounds were tested for comparative purposes: [drawing 6] These compounds were tested for antifungal activity in the same manner as the triorganotin 5-nitro-2-furoates of the present invention.

[2] = tested on: Chaetomium globosum (ATCC 6205); experiment: Antifungal activity, agar plate growth inhibition; assay type: cell-based; conditions: 14 days
Procedure: as §5, §6, §7

[3] = tested on: Fusarium moniliforme (ATCC 10052); experiment: Antifungal activity, agar plate growth inhibition; assay type: cell-based; conditions: 14 days
Procedure: as §5, §6, §7

[4] = tested on: Penicillium notatum (ATCC 9179); experiment: Antifungal activity, agar plate growth inhibition; assay type: cell-based; conditions: 14 days
Procedure: as §5, §6, §7

[5] = tested on: Myrothecium verrucaria (ATCC 9095); experiment: Antifungal activity, agar plate growth inhibition; assay type: cell-based; conditions: 14 days
Procedure: as §5, §6, §7

[6] = tested on: Aspergillus niger (ATCC 12845); experiment: Antifungal activity, agar plate growth inhibition; assay type: cell-based; conditions: 14 days
Procedure: as §5, §6, §7

[7] = tested on: Saccharomyces cerevisiae (ATCC 9896); experiment: Antifungal activity, agar plate growth inhibition; assay type: cell-based; conditions: 14 days
Procedure: as §5, §6, §7

[8] = tested on: Trichoderma viride (ATCC 8678); experiment: Antifungal activity, agar plate growth inhibition; assay type: cell-based; conditions: 14 days
Procedure: as §5, §6, §7

[9] = tested on: Trichophyton mentagrophytes (ATCC 9129); experiment: Antifungal activity, agar plate growth inhibition; assay type: cell-based; conditions: 14 days
Procedure: as §5, §6, §7

[10] = tested on: Cladosporium carpophilium (ATCC 12117); experiment: Antifungal activity, agar plate growth inhibition; assay type: cell-based, Cladosporium carpophilum; conditions: 14 days
Procedure: as §5, §6, §7

Bacillus subtilis = experiment: Antibacterial activity, agar growth inhibition; assay type: cell-based; parameters: key: -: no inhibition of growth; +: partial inhibition; 2+: complete inhibition; conditions: Gram-positive; 1 μg/ml; 24 hours at 37° C.
Procedure: as §1, with “The antibacterial activity of Compounds A-E was investigated by means of incorporating the compounds into sterile tryptic soy agar (Difco) at levels of 100, 10, and 1 μg/ml. The agar” for “The agar”
as §2
(§8) Comparative compounds 1-5 above were employed for comparison purposes. These compounds were tested for antibacterial activity in the same manner as the triorganotin 5-nitro-2-furoates of the present invention.
as §4
(§9) The ability of Compound B to inhibit the growth of other Gram-positive bacteria, using the same test procedures as described for the antibacterial activity determined in Table III above, is illustrated in Table IV below.

Pseudomonas aeruginosa = experiment: Antibacterial activity, agar growth inhibition; assay type: cell-based; conditions: Gram-negative, 24 hours at 37° C.
Procedure: as §1, §2, §3, §4

Bacillus megaterium = experiment: Antibacterial activity, agar growth inhibition; assay type: cell-based; conditions: Gram-positive
Procedure: as §1, §2, §3, §4

Staphylococcus aureus = experiment: Antibacterial activity, agar growth inhibition; assay type: cell-based
Procedure: as §1, with “The antibacterial activity of Compounds A-E was investigated by means of incorporating the compounds into sterile tryptic soy agar (Difco) at levels of 100, 10, and 1 μg/ml. The agar” for “The agar”
as §2, §8, §4, §9

test fungi = experiment: Antifungal activity, summary over the 10 test fungi; assay type: cell-based
Procedure: as §5, §6, §7

CCOC(=Nc1ccccc1)[S][Sn]([c]1ccccc1)([c]1ccccc1)[c]1ccccc1 [compound 4, Ethyl N--phenyl-S--(triphenylstannyl)iso-thiocarbamate, reference compound]
growth inhibition (in words) (Escherichia coli; 100 μg/ml): partially
growth inhibition (Escherichia coli; 1 μg/ml): -
growth inhibition (Escherichia coli; 10 μg/ml): -
growth inhibition ([1]; 1 μg/ml): +
growth inhibition ([1]; 10 μg/ml): +
growth inhibition ([1]; 100 μg/ml): +
growth inhibition ([2]; 1 μg/ml): +
growth inhibition ([2]; 10 μg/ml): +
growth inhibition ([2]; 100 μg/ml): 2+
growth inhibition ([3]; 1 μg/ml): +
growth inhibition ([3]; 10 μg/ml): +
growth inhibition ([3]; 100 μg/ml): +
growth inhibition ([4]; 1 μg/ml): +
growth inhibition ([4]; 10 μg/ml): +
growth inhibition ([4]; 100 μg/ml): +
growth inhibition ([5]; 1 μg/ml): +
growth inhibition ([5]; 10 μg/ml): +
growth inhibition ([5]; 100 μg/ml): +
growth inhibition ([6]; 1 μg/ml): +
growth inhibition ([6]; 10 μg/ml): +
growth inhibition ([6]; 100 μg/ml): +
growth inhibition ([7]; 1 μg/ml): -
growth inhibition ([7]; 10 μg/ml): +
growth inhibition ([7]; 100 μg/ml): +
growth inhibition ([8]; 1 μg/ml): -
growth inhibition ([8]; 10 μg/ml): +
growth inhibition ([8]; 100 μg/ml): +
growth inhibition ([9]; 1 μg/ml): +
growth inhibition ([9]; 10 μg/ml): 2+
growth inhibition ([9]; 100 μg/ml): 2+
growth inhibition ([10]; 1 μg/ml): +
growth inhibition ([10]; 10 μg/ml): +
growth inhibition ([10]; 100 μg/ml): 2+
growth inhibition (Bacillus subtilis): -

Triphenyltin 5-nitro-2-furoate [Compound A]
growth inhibition (Pseudomonas aeruginosa; 1 μg/ml): -
growth inhibition (Pseudomonas aeruginosa; 10 μg/ml): -
growth inhibition (Pseudomonas aeruginosa; 100 μg/ml): -
growth inhibition (Escherichia coli; 1 μg/ml): -
growth inhibition (Escherichia coli; 10 μg/ml): -
growth inhibition (Escherichia coli; 100 μg/ml): -
minimum concentration for complete growth inhibition (Bacillus megaterium): 1 µg/mL
minimum concentration for complete growth inhibition (Staphylococcus aureus; Gram-positive): 1 µg/mL
activity relative to Comparative Compounds 2, 4 and 5 (Staphylococcus aureus; towards Staphylococcus aureus): identical
growth inhibition ([1]; 1 μg/ml): +
growth inhibition ([1]; 10 μg/ml): +
growth inhibition ([1]; 100 μg/ml): +
growth inhibition ([2]; 1 μg/ml): +
growth inhibition ([2]; 10 μg/ml): +
growth inhibition ([2]; 100 μg/ml): +
growth inhibition ([3]; 1 μg/ml): +
growth inhibition ([3]; 10 μg/ml): +
growth inhibition ([3]; 100 μg/ml): +
growth inhibition ([4]; 1 μg/ml): +
growth inhibition ([4]; 10 μg/ml): 2+
growth inhibition ([4]; 100 μg/ml): 2+
growth inhibition ([5]; 1 μg/ml): +
growth inhibition ([5]; 10 μg/ml): 2+
growth inhibition ([5]; 100 μg/ml): 2+
growth inhibition ([6]; 1 μg/ml): +
growth inhibition ([6]; 10 μg/ml): 2+
growth inhibition ([6]; 100 μg/ml): 2+
growth inhibition ([7]; 1 μg/ml): -
growth inhibition ([7]; 10 μg/ml): +
growth inhibition ([7]; 100 μg/ml): +
growth inhibition ([8]; 1 μg/ml): +
growth inhibition ([8]; 10 μg/ml): +
growth inhibition ([8]; 100 μg/ml): +
growth inhibition ([9]; 1 μg/ml): +
growth inhibition ([9]; 10 μg/ml): 2+
growth inhibition ([9]; 100 μg/ml): 2+
growth inhibition ([10]; 1 μg/ml): 2+
growth inhibition ([10]; 10 μg/ml): 2+
growth inhibition ([10]; 100 μg/ml): 2+
partial growth inhibition of test fungi (in words) (test fungi; 1 μg/ml): partially inhibiting the growth of all of the test fungi, except Saccharomyces cerevisiae
number of test fungi with growth completely inhibited (test fungi; 10 μg/ml): 5 of the 10 test fungi
antifungal activity, rank among the triorganotin 5-nitro-2-furoates (test fungi; among Compounds A-E): second best antifungal agent
